Results reported in paper PMC11408619 (2024).

Tested on: Bsu PreQ1 RNA (MFS construct) (RNA, riboswitch) UCGGCGAUCUACGCAGCGACAUAAUAAGAGGUUCUAGCUACACCCUCUAUAAAAAACUAAUAACAACCACUUCCUAAUCUGUCAUCUUCUG
Assay: magnetic force spectroscopy, fraction of high-force cycles
Details: 100 mM KCl, 1 mM MgCl2; 50 mM HEPES pH 7.4, 1% DMSO, 22 °C

- KD/EC50: 58.8 ± 6.3 nM
SMILES: NCc1c[nH]c2nc(N)[nH]c(=O)c12
